Experimental data taken from ChEMBL document CHEMBL1687760, “Secondary integrase resistance mutations found in HIV-1 minority quasispecies in integrase therapy-naive patients have little or no effect on susceptibility to integrase inhibitors” (Antimicrob Agents Chemother, 2010).

Key:
[1] = test system: Human immunodeficiency virus 1; assay: Antiviral activity against Human immunodeficiency virus 1 3B harboring integrase L74M mutant infected in human MT4 cells assessed as inhibition of virus induced cytopathic effect relative to wild type HIV1; assay type: functional
[2] = test system: Human immunodeficiency virus 1; assay: Antiviral activity against Human immunodeficiency virus 1 3B harboring integrase T97A mutant infected in human MT4 cells assessed as inhibition of virus induced cytopathic effect relative to wild type HIV1; assay type: functional
[3] = test system: Human immunodeficiency virus 1; assay: Antiviral activity against Human immunodeficiency virus 1 3B harboring integrase S119G mutant infected in human MT4 cells assessed as inhibition of virus induced cytopathic effect relative to wild type HIV1; assay type: functional
[4] = test system: Human immunodeficiency virus 1; assay: Antiviral activity against Human immunodeficiency virus 1 3B harboring integrase G140S mutant infected in human MT4 cells assessed as inhibition of virus induced cytopathic effect relative to wild type HIV1; assay type: functional
[5] = test system: Human immunodeficiency virus 1; assay: Antiviral activity against Human immunodeficiency virus 1 3B harboring integrase V165I mutant infected in human MT4 cells assessed as inhibition of virus induced cytopathic effect relative to wild type HIV1; assay type: functional
[6] = test system: Human immunodeficiency virus 1; assay: Antiviral activity against Human immunodeficiency virus 1 clone 15_7 harboring integrase E11D, S17T, L45V, M50T, I72V, L74I, T97A, K111T, S119G, T125A infected in human MT4 cells assessed as inhibition of virus induced cytopathic effect relative to wild type HIV1; assay type: functional
[7] = test system: Human immunodeficiency virus 1; assay: Antiviral activity against Human immunodeficiency virus 1 clone 15_19 harboring integrase E11D, S17T, L45V, M50T, I72V, L74I, T97A, K111T, S119G, T125A infected in human MT4 cells assessed as inhibition of virus induced cytopathic effect relative to wild type HIV1; assay type: functional
[8] = test system: Human immunodeficiency virus 1; assay: Antiviral activity against Human immunodeficiency virus 1 clone 18_13 harboring integrase S17N, T124N, T125A, G140S, M154I, S195C infected in human MT4 cells assessed as inhibition of virus induced cytopathic effect relative to wild type HIV1; assay type: functional
[9] = test system: Human immunodeficiency virus 1; assay: Antiviral activity against Human immunodeficiency virus 1 clone 50_2 harboring integrase R20K, A23V, E92G, T124N, I141V, G193E, V201I, T206S, I220V, D279G infected in human MT4 cells assessed as inhibition of virus induced cytopathic effect relative to wild type HIV1; assay type: functional
[10] = test system: Human immunodeficiency virus 1; assay: Antiviral activity against Human immunodeficiency virus 1 clone 1 harboring integrase E11D, S17T, L45V, M50I, M50T, I72V, L74I, K111T, S119G, T125A relative to wild type HIV1; assay type: functional
[11] = test system: Human immunodeficiency virus 1; assay: Antiviral activity against Human immunodeficiency virus 1 clone 5 harboring integrase E11D, S17T, S39G, L45V, M50I, I72V, L74I, K111T, S119G, T125A relative to wild type HIV1; assay type: functional
[12] = test system: Human immunodeficiency virus 1; assay: Antiviral activity against Human immunodeficiency virus 1 clone 7 harboring integrase E11D, S17T, L45V, M50T, I72V, L74I, K111T, T125A relative to wild type HIV1; assay type: functional
[13] = test system: Human immunodeficiency virus 1; assay: Antiviral activity against Human immunodeficiency virus 1 clone 16 harboring integrase E11D, S17T, L45V, M50T, I72V, L74I, K111T, T125A relative to wild type HIV1; assay type: functional
[14] = test system: Human immunodeficiency virus 1; assay: Antiviral activity against Human immunodeficiency virus 1 clone 19 harboring integrase E11D, S17T, L45V, M50T, I72V, L74I, T97A, K111T, S119G, T125A relative to wild type HIV1; assay type: functional
[15] = test system: Human immunodeficiency virus 1; assay: Antiviral activity against Human immunodeficiency virus 1 clone 2 harboring integrase S17N, I84I, T124N, T125A, M154I, E157K, S195C mutant gene relative to wild type HIV1; assay type: functional
[16] = test system: Human immunodeficiency virus 1; assay: Antiviral activity against Human immunodeficiency virus 1 clone 3 harboring integrase S17N, I84I, T124N, T125A, M154I, S195C mutant gene relative to wild type HIV1; assay type: functional
[17] = test system: Human immunodeficiency virus 1; assay: Antiviral activity against Human immunodeficiency virus 1 clone 13 harboring integrase S17N, T124N, T125A, G140S, M154I, S195C mutant gene relative to wild type HIV1; assay type: functional
[18] = test system: Human immunodeficiency virus 1; assay: Antiviral activity against Human immunodeficiency virus 1 clone 14 harboring integrase S17N, T124N, T125A, M154I, S195C, V201I mutant gene relative to wild type HIV1; assay type: functional
[19] = test system: Human immunodeficiency virus 1; assay: Antiviral activity against Human immunodeficiency virus 1 clone 15 harboring integrase S17N, I84I, T124N, T125A, M154I, S195C mutant gene relative to wild type HIV1; assay type: functional
[20] = test system: Human immunodeficiency virus 1; assay: Antiviral activity against Human immunodeficiency virus 1 clone 2 harboring integrase R20K, A23V, E92G, T124N, I141V, G193E, V201I, T206S, I220V, D279G mutant gene relative to wild type HIV1; assay type: functional
[21] = test system: Human immunodeficiency virus 1; assay: Antiviral activity against Human immunodeficiency virus 1 clone 3 harboring integrase R20K, A23V, T124N, I141V, G193E, V201I, T206S, I220V, M275Vmutant gene relative to wild type HIV1; assay type: functional
[22] = test system: Human immunodeficiency virus 1; assay: Antiviral activity against Human immunodeficiency virus 1 3B infected in human MT4 cells assessed as inhibition of virus induced cytopathic effect; assay type: functional, organism-based
[23] = test system: Human immunodeficiency virus 1; assay: Antiviral activity against Human immunodeficiency virus 1 3B harboring integrase T66I mutant infected in human MT4 cells assessed as inhibition of virus induced cytopathic effect relative to wild type HIV1; assay type: functional
[24] = test system: Human immunodeficiency virus 1; assay: Antiviral activity against Human immunodeficiency virus 1 3B harboring integrase E92Q mutant infected in human MT4 cells assessed as inhibition of virus induced cytopathic effect relative to wild type HIV1; assay type: functional
[25] = test system: Human immunodeficiency virus 1; assay: Antiviral activity against Human immunodeficiency virus 1 3B harboring integrase I72V mutant infected in human MT4 cells assessed as inhibition of virus induced cytopathic effect relative to wild type HIV1; assay type: functional
[26] = test system: Human immunodeficiency virus 1; assay: Antiviral activity against Human immunodeficiency virus 1 clone 4 harboring integrase R20K, A23V, T124N, I141V, G193E, V201I, T206S, I220V, D279G mutant gene relative to wild type HIV1; assay type: functional
[27] = test system: Human immunodeficiency virus 1; assay: Antiviral activity against Human immunodeficiency virus 1 clone 16 harboring integrase R20K, A23V, M50I, T124N, G193E, V201I, T206S, I220V, D279G mutant gene relative to wild type HIV1; assay type: functional
[28] = test system: Human immunodeficiency virus 1; assay: Antiviral activity against Human immunodeficiency virus 1 clone 17 harboring integrase R20K, A23V, T124N,A129T, I141V, I62T, G193E, V201I, T206S, I220V, D279G mutant gene relative to wild type HIV1; assay type: functional
[29] = test system: Human immunodeficiency virus 1; assay: Antiviral activity against Human immunodeficiency virus 1 clone 15_7 harboring integrase T97A mutant and T97A, Y143R site-directed mutation relative to wild type HIV1; assay type: functional
[30] = test system: Human immunodeficiency virus 1; assay: Antiviral activity against Human immunodeficiency virus 1 clone 15_12 harboring integrase Y143R site-directed mutation relative to wild type HIV1; assay type: functional
[31] = test system: Human immunodeficiency virus 1; assay: Antiviral activity against Human immunodeficiency virus 1 clone 18_13 harboring integrase G140S mutant and G140S, Q148H site-directed mutation relative to wild type HIV1; assay type: functional
[32] = test system: Human immunodeficiency virus 1; assay: Antiviral activity against Human immunodeficiency virus 1 HXB2 assessed as inhibition of virus induced cytopathic effect relative to wild type HIV1; assay type: functional

Row | SMILES | fold change (FC) [1] | fold change (FC) [2] | fold change (FC) [3] | fold change (FC) [4] | fold change (FC) [5] | fold change (FC) [6] | fold change (FC) [7] | fold change (FC) [8] | fold change (FC) [9] | fold change (FC) [10] | fold change (FC) [11] | fold change (FC) [12] | fold change (FC) [13] | fold change (FC) [14] | fold change (FC) [15] | fold change (FC) [16] | fold change (FC) [17] | fold change (FC) [18] | fold change (FC) [19] | fold change (FC) [20] | further results
1 | COc1cc2c(cc1Cc1cccc(Cl)c1F)c(=O)c(C(=O)O)cn2[C@H](CO)C(C)C [ELVITEGRAVIR] | 0.7 | 2.6 | 1 | 5.6 | 0.8 | 2.7 | 2.5 | 5.6 | 13 | 1.4 | 0.3 | 2.7 | 0.5 | 2.5 | 1.1 | 0.6 | 5.6 | 1.3 | 0.6 | 13 | fold change (FC) [21]: 0.7; EC50 [22]: 11.6 nM; fold change (FC) [23]: 10.5; fold change (FC) [24]: 20.8; fold change (FC) [25]: 0.8; fold change (FC) [26]: 0.7; fold change (FC) [27]: 0.7; fold change (FC) [28]: 0.3; fold change (FC) [29]: 14.6; fold change (FC) [30]: 4.2; fold change (FC) [31]: >633.7; fold change (FC) [32]: 1.2
2 | Cc1nnc(C(=O)NC(C)(C)c2nc(C(=O)NCc3ccc(F)cc3)c(O)c(=O)n2C)o1 [RALTEGRAVIR] | 0.9 | 1.6 | 1.1 | 2.4 | 0.7 | 1.5 | 1.7 | 2.4 | 1.8 | 1.7 | 0.7 | 1.5 | 1.2 | 1.7 | 1.1 | 0.8 | 2.4 | 1.8 | 0.7 | 1.8 | fold change (FC) [21]: 0.5; EC50 [22]: 6.1 nM; fold change (FC) [23]: 0.8; fold change (FC) [24]: 3.8; fold change (FC) [25]: 0.9; fold change (FC) [26]: 0.2; fold change (FC) [27]: 0.8; fold change (FC) [28]: 0.3; fold change (FC) [29]: 91.6; fold change (FC) [30]: 13.1; fold change (FC) [31]: 768; fold change (FC) [32]: 1
